From the supplement of paper PMC10307832

Columns and labels:
Assay in all cases: relative viability (nuclei count vs DMSO), 5 days (fraction); higher = more cells survive
Zebularine + Olaparib = compound: O=c1ncccn1[C@@H]1O[C@H](CO)[C@@H](O)[C@H]1O [Zebularine] + O=C(c1cc(Cc2n[nH]c(=O)c3ccccc23)ccc1F)N1CCN(C(=O)C2CC2)CC1 [Olaparib] (partner 8 µM)
How it was run: (§1)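 Lung cancer cell lines in 1536-well plates were dosed by pin tool the day after seeding, either with one drug alone or with a fixed anchor-drug dose plus five library-drug doses (not always all listed) in √10 steps. After 5 days, cells were fixed and their nuclei stained in one step (final 0.05% Triton X-100, 1% formaldehyde, 1 ug/ml Hoechst), then counted on 4× images. Relative viability is the nuclei count in treated wells divided by that in vehicle wells. Values are medians of duplicate plates.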

BI-D1870 + Lapatinib = compound: CC(C)CCN1c2nc(Nc3cc(F)c(O)c(F)c3)ncc2N(C)C(=O)C1C [BI-D1870] + CS(=O)(=O)CCNCc1ccc(-c2ccc3ncnc(Nc4ccc(OCc5cccc(F)c5)c(Cl)c4)c3c2)o1 [Lapatinib] (partner 2 µM)
How it was run: as §1

Zebularine + Crizotinib = compound: O=c1ncccn1[C@@H]1O[C@H](CO)[C@@H](O)[C@H]1O [Zebularine] + C[C@@H](Oc1cc(-c2cnn(C3CCNCC3)c2)cnc1N)c1c(Cl)ccc(F)c1Cl [Crizotinib] (partner 1 µM)
How it was run: as §1

BI-D1870 + Dasatinib = compound: CC(C)CCN1c2nc(Nc3cc(F)c(O)c(F)c3)ncc2N(C)C(=O)C1C [BI-D1870] + Cc1nc(Nc2ncc(C(=O)Nc3c(C)cccc3Cl)s2)cc(N2CCN(CCO)CC2)n1 [Dasatinib] (partner 0.075 µM)
How it was run: as §1

Cell Line | relative viability (Zebularine + Olaparib; first compound 1 µM) | relative viability (Zebularine + Olaparib; first compound 3.162 µM) | relative viability (Zebularine + Olaparib; first compound 10 µM) | relative viability (Zebularine + Olaparib; first compound 31.62 µM) | relative viability (Zebularine + Olaparib; first compound 100 µM) | relative viability (BI-D1870 + Lapatinib; first compound 0.04 µM) | relative viability (BI-D1870 + Lapatinib; first compound 0.1265 µM) | relative viability (BI-D1870 + Lapatinib; first compound 0.4 µM) | relative viability (BI-D1870 + Lapatinib; first compound 1.265 µM) | relative viability (BI-D1870 + Lapatinib; first compound 4 µM) | relative viability (Zebularine + Crizotinib; first compound 1 µM) | relative viability (Zebularine + Crizotinib; first compound 3.162 µM) | relative viability (Zebularine + Crizotinib; first compound 10 µM) | relative viability (Zebularine + Crizotinib; first compound 31.62 µM) | relative viability (Zebularine + Crizotinib; first compound 100 µM) | relative viability (BI-D1870 + Dasatinib; first compound 0.04 µM) | relative viability (BI-D1870 + Dasatinib; first compound 0.1265 µM) | relative viability (BI-D1870 + Dasatinib; first compound 0.4 µM) | relative viability (BI-D1870 + Dasatinib; first compound 1.265 µM) | relative viability (BI-D1870 + Dasatinib; first compound 4 µM)
HCC-44 | 0.974 | 0.971 | 0.762 | 0.825 | 0.39 | 1.05 | 1.04 | 1.02 | 0.961 | 1.1 | 0.808 | 0.798 | 0.698 | 0.656 | 0.166 |  |  |  |  | 
HCC-78 | 0.76 | 0.652 |  | 0.444 | 0.291 | 0.827 | 0.597 | 0.715 | 1.13 | 0.856 | 0.336 | 0.335 | 0.298 | 0.359 | 0.252 | 0.362 | 0.382 | 0.422 | 0.442 | 0.33
HCC-366 | 0.411 | 0.294 | 0.186 | 0.103 | 0.108 | 1.09 | 1.01 | 1 | 1.21 | 0.389 | 0.774 | 0.637 | 0.2 | 0.265 | 0.133 | 0.633 | 0.528 | 0.603 | 0.731 | 0.427
HCC-827 | 0.752 | 0.607 | 0.487 | 0.415 | 0.252 | 0.224 | 0.179 | 0.194 | 0.172 | 0.231 | 1.07 | 0.907 | 0.785 | 0.647 | 0.339 | 0.383 | 0.373 | 0.321 | 0.412 | 0.26
HOP-62 | 0.169 | 0.35 | 0.257 | 0.163 | 0.16 | 1.07 | 1.08 | 0.934 | 1.06 | 0.825 | 0.923 | 0.245 | 0.601 | 0.209 | 0.129 | 0.707 | 0.675 | 0.603 | 0.66 | 0.524
IA-LM | 0.889 | 0.828 |  | 1.04 | 0.401 | 0.972 | 0.906 | 0.862 | 0.614 | 0.213 | 1.07 | 0.718 |  | 1.1 | 0.609 |  |  |  |  | 
LC-2-ad | 0.729 | 0.681 | 0.434 | 0.201 | 0.254 | 1.04 | 0.932 | 0.975 | 1.08 | 0.971 | 0.498 | 0.434 | 0.363 | 0.377 | 0.249 | 1.05 | 0.576 | 0.473 | 0.578 | 0.43
LCLC-97TM1 | 0.404 | 0.289 | 0.138 | 0.104 | 0.119 | 1.35 | 0.988 | 0.622 | 1.3 | 0.916 | 0.355 | 0.291 | 0.145 | 0.121 | 0.12 | 0.932 | 0.833 | 0.947 | 0.899 | 0.709
LCLC-103H | 0.839 | 0.829 | 0.597 | 0.632 | 0.637 |  |  |  |  |  | 1.07 | 1.11 | 0.867 | 1.07 | 0.862 | 0.537 | 0.38 | 0.454 | 0.469 | 0.469
LK-2 | 0.884 | 0.714 | 0.335 | 0.259 | 0.221 | 1.01 | 0.888 | 0.985 | 1.04 | 0.977 | 0.217 | 0.236 | 0.266 | 0.209 | 0.23 | 0.442 | 0.359 | 0.239 | 0.241 | 0.281
LOU-NH91 | 0.906 | 0.891 | 0.704 | 0.775 | 0.469 | 0.837 | 0.717 | 0.782 | 0.837 | 0.677 | 0.713 | 0.732 | 0.693 | 0.738 | 0.647 | 0.582 | 0.527 | 0.516 | 0.595 | 0.458
NCI-H441 | 0.568 | 0.41 | 0.32 | 0.227 | 0.24 |  |  |  |  |  | 0.874 | 0.657 | 0.289 | 0.173 | 0.219 | 0.763 | 0.544 | 0.575 | 0.651 | 0.671
NCI-H522 | 0.746 | 0.647 | 0.577 | 0.546 | 0.573 |  |  |  |  |  |  |  |  |  |  | 0.91 | 0.874 | 0.777 | 0.99 | 0.926
NCI-H1299 | 1.06 | 0.893 | 0.852 | 0.805 | 0.447 | 0.903 | 0.957 | 0.95 | 0.915 | 0.743 | 0.963 | 0.921 | 0.788 | 0.893 | 0.566 |  |  |  |  | 
NCI-H1395 | 0.465 | 0.47 | 0.558 | 0.438 | 0.448 | 1.13 | 0.895 | 0.989 | 1.13 | 0.79 |  |  |  |  |  | 0.471 | 0.432 | 0.428 | 0.359 | 0.384
NCI-H1563 |  |  |  |  |  | 1.08 | 0.898 | 0.817 | 0.9 | 0.917 | 0.877 | 0.873 | 0.849 | 0.935 | 0.828 | 0.456 | 0.434 | 0.425 | 0.506 | 0.477
NCI-H1648 | 0.588 | 0.852 | 0.643 | 0.7 | 0.471 |  |  |  |  |  |  |  |  |  |  |  |  |  |  | 
NCI-H1703 | 0.468 | 0.552 | 0.339 | 0.395 | 0.321 | 1.07 | 0.732 | 1.29 | 1.11 | 0.796 | 0.623 | 0.852 |  | 0.67 | 0.913 |  |  |  |  | 
NCI-H1793 | 1.02 | 0.906 | 0.37 | 0.333 | 0.27 | 0.937 | 0.557 | 0.679 | 1.03 | 0.971 |  |  |  |  |  | 0.423 | 0.334 | 0.396 | 0.39 | 0.309
NCI-H2342 | 0.462 | 0.468 | 0.388 | 0.437 | 0.365 |  |  |  |  |  |  |  |  |  |  | 0.333 | 0.313 | 0.315 | 0.329 | 0.406
SW 900 | 1.04 | 0.889 |  | 0.773 | 0.479 |  |  |  |  |  |  |  |  |  |  | 0.66 | 0.456 | 0.662 | 0.499 | 0.338
